Measured values taken from PubChem BioAssay (NCI).
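Interpolation was linear, between the two tested concentrations surrounding the appropriate level; five concentrations were tested over 48 hours in 96-well plates. The concentration for 50% growth inhibition is given as GI50. At the TGI there is no net growth.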

Tests used:
Assay in all cases: growth of human tumour cells (NCI), 48 h
A549 NSCLC = test system: A549 NSCLC
COLO 205 colon = test system: COLO 205 colon
HCC-2998 colon = test system: HCC-2998 colon
HOP-62 NSCLC = test system: HOP-62 NSCLC
NCI-H226 lung = test system: NCI-H226 lung
NCI-H460 lung = test system: NCI-H460 lung
NCI-H522 lung = test system: NCI-H522 lung
SK-OV-3 ovarian = test system: SK-OV-3 ovarian
SW-620 colon = test system: SW-620 colon
UACC-62 melanoma = test system: UACC-62 melanoma

| Structure (SMILES) | TGI (A549 NSCLC) [µM] | TGI (COLO 205 colon) [µM] | TGI (HCC-2998 colon) [µM] | TGI (HOP-62 NSCLC) [µM] | TGI (NCI-H226 lung) [µM] | TGI (NCI-H460 lung) [µM] | TGI (NCI-H522 lung) [µM] | TGI (SK-OV-3 ovarian) [µM] | TGI (SW-620 colon) [µM] | TGI (UACC-62 melanoma) [µM] | GI50 (A549 NSCLC) [µM] | GI50 (COLO 205 colon) [µM] | GI50 (HCC-2998 colon) [µM] | GI50 (HOP-62 NSCLC) [µM] | GI50 (NCI-H226 lung) [µM] | GI50 (NCI-H460 lung) [µM] | GI50 (NCI-H522 lung) [µM] | GI50 (SK-OV-3 ovarian) [µM] | GI50 (SW-620 colon) [µM] | GI50 (UACC-62 melanoma) [µM] |
| --- | --- | --- | --- | --- | --- | --- | --- | --- | --- | --- | --- | --- | --- | --- | --- | --- | --- | --- | --- | --- |
| O=C(NCCO)c1ccc([N+](=O)[O-])cc1 | > 100 | > 100 | > 100 | > 100 | > 100 | > 100 | > 100 | > 100 | > 100 | > 100 |  |  |  |  |  |  |  |  |  |  |
| Cc1cc(S(=O)(=O)/N=C/N(C)C)c(SC(=O)c2ccc(Cl)cc2)cc1Cl | 85.2 | > 100 | 38.2 | > 100 | 87.2 | > 100 | > 100 | > 100 | 72.3 | > 100 | 34.1 | 55.9 | 17.9 | 41.8 | 27.8 | 56.5 | 47.9 | > 100 | 27.6 | 29.9 |
| COc1cccc(-c2ccc3c(c2)C2CCN(Cc4ccccc4)C3C2)c1 (stereo not given) | 31.8 | 27.8 | 33.5 | 35.6 | 30.4 | 15.7 | 20.4 | 48.8 | 20.3 | 22 | 7.72 | 10 | 13.6 | 12.1 | 11.1 | 4.13 | 4.54 | 14.8 | 4.59 | 8.48 |
| COc1cccc(-c2nn(-c3ccccc3)cc2-c2ccnc(NCCNC(=O)Nc3cccc(C(F)(F)F)c3)c2)c1 | 11.5 | 3.78 | 3.26 | 5.63 | 5.32 | 3.85 | 3.19 | 12.2 | 3.81 | 3.73 | 3.38 | 1.88 | 1.72 | 2.52 | 2.07 | 2 | 1.24 | 3.5 | 1.91 | 1.85 |
| N#CC1CCCCOCCOCCOCCOCCOCCCCCC1=O (stereo not given) | > 100 | > 100 | > 100 | > 100 | > 100 | > 100 | > 100 | > 100 | > 100 | > 100 |  |  |  |  |  |  |  |  |  |  |
| CN(Cc1cccc(F)c1)c1ccc(CO)c(Cl)c1 | 37 | 19.3 | 42.5 | 47.8 | 0.275 | 13.5 | 75.5 | 50.4 | > 100 | 2.42 | 4.91 | 5.46 | 13.2 | 4.84 | 0.123 | 1.28 | 24.1 | 11.4 | 5.13 | 0.288 |
| O=C1C2=C(c3ccccc31)C(c1ccccc1)N1C(=O)CSC1=N2 (stereo not given) | > 100 | > 100 | > 100 | > 100 | > 100 | > 100 | > 79.8 | > 100 | > 100 | > 100 |  |  |  |  |  |  |  |  |  |  |
